From patent US9296720B2, “Carboxamide-substituted heteroaryl-pyrazoles and the use thereof” (AiCuris GmbH & Co. KG, priority 2011, dated 2016)

How the values were obtained:
reverse transcriptase = biological target: T1, reverse transcriptase (Human immunodeficiency virus type 1 group M subtype B, UniProt P04585); test: Biochemical reverse transcriptase assay (Reverse Transcriptase Assay, colorimetric, Roche); conditions: colorimetric RT assay, DMSO 1%
T1 construct: negative control (batch without reverse transcriptase); purchased Roche Diagnostics GmbH, Mannheim, Germany
Experimental: The “Reverse Transcriptase Assay, colorimetric” (Roche Diagnostics GmbH, Mannheim, Germany) is used according to manufacturers' instructions. The test substances are dissolved in DMSO and used in diluted form in the test in the five steps (DMSO final concentration: 1%). The resulting values of the photometric analysis (405/492 nm) are smaller than 0.1 in the negative control (batch without reverse transcriptase) and are in the range of 1.5 in the positive control (batch without test substance). The IC50 values of the test substances are determined as the concentration of the test substance dilution, in which the measured optical density is 50% of the positive control.

HIV-1NL4-3 Wild Type = test: Luminescence reduction assay, MT4 cells infected with HIV-1NL4-3 luciferase reporter virus, wild type; assay type: cell-based; conditions: Human immunodeficiency virus 1, MT4, MT4 cells, 2% FCS
Method in brief: (§1)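 Compound dilution series in 1% DMSO, with 2% or 10% FCS, incubated 5 days at 37° C/5% CO2 with MT4 cells previously pellet-infected (2 h) by luciferase reporter NL4-3 virus, wild type or carrying RT resistance mutations. EC50 taken where luminescence from secreted luciferase falls to 50% of untreated infected control.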

HIV-1NL4-3 K103N-Y181C = test: Luminescence reduction assay, MT4 cells infected with HIV-1NL4-3 luciferase reporter virus, RT mutant K103N-Y181C; assay type: cell-based; conditions: Human immunodeficiency virus 1, MT4, read-out: EC50 (μM) MT4 Cells HIV-1NL4-3 K103N-Y181C 2% FCS, MT4 cells, HIV-1NL4-3 K103N-Y181C, 2% FCS
Method in brief: as §1

HIV-1LAI Wild Type = test: AlamarBlue viability assay, HIV-1LAI-infected MT4 cells; assay type: cell-based; conditions: Human immunodeficiency virus 1, MT4, MT4 cells, 10% FCS
Method in brief: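 MT4 cells infected with HIV-1LAI (MOI 0.01, supernatant infection) cultured 5 days at 37 °C with compounds in RPMI with 2% or 10% FCS, 1% DMSO final. AlamarBlue fluorescence after 3 h; EC50 as 50% protection relative to uninfected cells, CC50 from high-concentration cytotoxicity.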

Row | Compound | IC50 (reverse transcriptase) | EC50 (HIV-1NL4-3 Wild Type) | EC50 (HIV-1NL4-3 K103N-Y181C) | EC50 (HIV-1LAI Wild Type)
1 | O=C1CN(C(=O)c2cc(-c3cc(Br)cc(OC(F)(F)F)c3)n(-c3cccnc3)n2)CN1 [Example 28, 1-({5-[3-Bromo-5-(trifluoromethoxy)phenyl]-1-(pyridin-3-yl)-1H-pyrazol-3-yl}carbonyl)imidazolidin-4-one] | 0.213 µM | 0.005 µM | 0.005 µM | 0.044 µM
2 | O=C1CN(C(=O)c2cc(-c3cc(Br)cc(OC(F)(F)F)c3)n(-c3ccnc(Cl)c3)n2)CCN1 [Example 49, 4-({5-[3-Bromo-5-(trifluoromethoxy)phenyl]-1-(2-chloropyridin-4-yl)-1H-pyrazol-3-yl}carbonyl)piperazin-2-one] | 0.758 µM | 0.008 µM | 0.038 µM | 0.23 µM
3 | O=C1CN(C(=O)c2cc(-c3cc(F)cc(OC(F)(F)F)c3)n(-c3cccnc3)n2)CCN1 [Example 58] | 0.056 µM | 0.204 µM | 1.09 µM | 0.955 µM
4 | O=C(c1cc(-c2cc(Cl)cc(OC(F)F)c2)n(-c2cccnc2)n1)N1CCS(=O)(=O)C1 [Example 83, {5-[3-Chloro-5-(difluoromethoxy)phenyl]-1-(pyridin-3-yl)-1H-pyrazol-3-yl}(1,1-dioxido-1,3-thiazolidin-3-yl)methanone] | 0.065 µM | 0.008 µM | 0.168 µM | 0.089 µM
5 | COc1cc(Br)cc(-c2cc(C(=O)N3CNC(=O)C3)nn2-c2ccnc(Cl)c2)c1 [Example 96, 1-{[5-(3-Bromo-5-methoxyphenyl)-1-(2-chloropyridin-4-yl)-1H-pyrazol-3-yl]carbonyl}imidazolidin-4-one] | – | 0.004 µM | 0.02 µM | 0.016 µM
6 | COc1cc(Br)cc(-c2cc(C(=O)N3CCNC(=O)C3)nn2-c2ccnc(Cl)c2)c1 [Example 97, 4-{[5-(3-Bromo-5-methoxyphenyl)-1-(2-chloropyridin-4-yl)-1H-pyrazol-3-yl]carbonyl}piperazin-2-one] | – | 0.013 µM | 0.116 µM | 0.068 µM
7 | O=C1CN(C(=O)c2cc(-c3cncc(F)c3)n(-c3ccc(F)c(Cl)c3)n2)CN1 [Example 98, 1-{[1-(3-Chloro-4-fluorophenyl)-5-(5-fluoropyridin-3-yl)-1H-pyrazol-3-yl]carbonyl}imidazolidin-4-one] | – | 0.018 µM | 0.032 µM | 0.056 µM
8 | O=C1CN(C(=O)c2cc(-c3cncc(F)c3)n(-c3ccc(F)c(Cl)c3)n2)CCN1 [Example 99, 4-{[1-(3-Chloro-4-fluorophenyl)-5-(5-fluoropyridin-3-yl)-1H-pyrazol-3-yl]carbonyl}piperazin-2-one] | – | 0.113 µM | 1.31 µM | 0.258 µM
9 | O=C1CN(C(=O)c2cc(-c3cncc(Cl)c3)n(-c3ccc(F)c(Cl)c3)n2)CN1 [Example 100, 1-{[1-(3-Chloro-4-fluorophenyl)-5-(5-chloropyridin-3-yl)-1H-pyrazol-3-yl]carbonyl}imidazolidin-4-one] | – | 0.005 µM | 0.009 µM | 0.01 µM
10 | O=C1CN(C(=O)c2cc(-c3cncc(Cl)c3)n(-c3ccc(F)c(Cl)c3)n2)CCN1 [Example 101, 4-{[1-(3-Chloro-4-fluorophenyl)-5-(5-chloropyridin-3-yl)-1H-pyrazol-3-yl]carbonyl}piperazin-2-one] | – | 0.016 µM | 0.088 µM | 0.034 µM
11 | COc1cncc(-c2cc(C(=O)N3CNC(=O)C3)nn2-c2ccc(F)c(Cl)c2)c1 [Example 102, 1-{[1-(3-Chloro-4-fluorophenyl)-5-(5-methoxypyridin-3-yl)-1H-pyrazol-3-yl]carbonyl}imidazolidin-4-one] | – | 0.026 µM | 0.022 µM | 0.111 µM
12 | COc1cncc(-c2cc(C(=O)N3CCNC(=O)C3)nn2-c2ccc(F)c(Cl)c2)c1 [Example 103, 4-{[1-(3-Chloro-4-fluorophenyl)-5-(5-methoxypyridin-3-yl)-1H-pyrazol-3-yl]carbonyl}piperazin-2-one] | – | 0.205 µM | 0.375 µM | 0.785 µM
13 | O=C(c1cc(-c2cc(F)cc(OC(F)(F)F)c2)n(-c2ccnc(Cl)c2)n1)N1CCSC1 [Example 104, {1-(2-Chloropyridin-4-yl)-5-[3-fluoro-5-(trifluoromethoxy)phenyl]-1H-pyrazol-3-yl}(1,3-thiazolidin-3-yl)methanone] | – | 0.58 µM | ≥ 3.3 µM | > 3.3 µM
14 | O=C1CN(C(=O)c2cc(-c3cncc(OC(F)F)c3)n(-c3ccc(F)c(Cl)c3)n2)CN1 [Example 105, 1-({1-(3-Chloro-4-fluorophenyl)-5-[5-(difluoromethoxy)pyridin-3-yl]-1H-pyrazol-3-yl}carbonyl)imidazolidin-4-one] | – | 0.018 µM | 0.007 µM | 0.116 µM
15 | O=C1CN(C(=O)c2cc(-c3cncc(C(F)(F)F)c3)n(-c3ccc(F)c(Cl)c3)n2)CN1 [Example 106, 1-({1-(3-Chloro-4-fluorophenyl)-5-[5-(trifluoromethyl)pyridin-3-yl]-1H-pyrazol-3-yl}carbonyl)imidazolidin-4-one] | – | 0.082 µM | 0.12 µM | 0.084 µM
16 | O=C1CN(C(=O)c2cc(-c3cncc(C(F)(F)F)c3)n(-c3ccc(F)c(Cl)c3)n2)CCN1 [Example 107] | – | 0.299 µM | 1.28 µM | 0.263 µM
17 | O=C1CN(C(=O)c2cc(-c3cncc(C(F)(F)F)c3)n(-c3cccc(Cl)c3)n2)CN1 [Example 108, 1-({1-(3-Chlorophenyl)-5-[5-(trifluoromethyl)pyridin-3-yl]-1H-pyrazol-3-yl}carbonyl)imidazolidin-4-one] | – | 0.052 µM | 0.093 µM | 0.036 µM
18 | O=C1CN(C(=O)c2cc(-c3cncc(C(F)(F)F)c3)n(-c3cccc(Cl)c3)n2)CCN1 [Example 109, 4-({1-(3-Chlorophenyl)-5-[5-(trifluoromethyl)pyridin-3-yl]-1H-pyrazol-3-yl}carbonyl)piperazin-2-one] | – | 0.232 µM | 0.768 µM | 0.246 µM
19 | O=C1CN(C(=O)c2cc(-c3cnc(F)c(Cl)c3)n(-c3cccc(Cl)c3)n2)CN1 [Example 110, 1-{[5-(5-Chloro-6-fluoropyridin-3-yl)-1-(3-chlorophenyl)-1H-pyrazol-3-yl]carbonyl}imidazolidin-4-one] | – | 0.024 µM | 0.039 µM | 0.025 µM
20 | O=C1CN(C(=O)c2cc(-c3cnc(F)c(Cl)c3)n(-c3ccc(F)c(Cl)c3)n2)CN1 [Example 111, 1-{[1-(3-Chloro-4-fluorophenyl)-5-(5-chloro-6-fluoropyridin-3-yl)-1H-pyrazol-3-yl]carbonyl}imidazolidin-4-one] | – | 0.03 µM | 0.173 µM | 0.024 µM
21 | O=C1CN(C(=O)c2cc(-c3ccnc(Cl)c3)n(-c3ccc(F)c(Cl)c3)n2)CN1 [Example 112, 1-{[1-(3-Chloro-4-fluorophenyl)-5-(2-chloropyridin-4-yl)-1H-pyrazol-3-yl]carbonyl}imidazolidin-4-one] | – | 0.016 µM | 0.03 µM | 0.079 µM
22 | O=C1CN(C(=O)c2cc(-c3ccnc(Cl)c3)n(-c3ccc(F)c(Cl)c3)n2)CCN1 [Example 113, 4-{[1-(3-Chloro-4-fluorophenyl)-5-(2-chloropyridin-4-yl)-1H-pyrazol-3-yl]carbonyl}piperazin-2-one] | – | 0.025 µM | 0.298 µM | 0.233 µM
23 | O=C1CN(C(=O)c2cc(-c3ccnc(Cl)c3)n(-c3cccc(Cl)c3)n2)CN1 [Example 114, 1-{[1-(3-Chlorophenyl)-5-(2-chloropyridin-4-yl)-1H-pyrazol-3-yl]carbonyl}imidazolidin-4-one] | – | 0.007 µM | 0.171 µM | 0.063 µM
24 | O=C1CN(C(=O)c2cc(-c3ccnc(Cl)c3)n(-c3cccc(Cl)c3)n2)CCN1 [Example 115, 4-{[1-(3-Chlorophenyl)-5-(2-chloropyridin-4-yl)-1H-pyrazol-3-yl]carbonyl}piperazin-2-one] | – | 0.027 µM | 1.09 µM | 0.352 µM
25 | O=C1CN(C(=O)c2cc(-c3cc(Br)cc(OC(F)(F)F)c3)n(-c3ccnc(C(F)(F)F)c3)n2)CCN1 [Example 116, 4-({5-[3-Bromo-5-(trifluoromethoxy)phenyl]-1-[2-(trifluoromethyl)pyridin-4-yl]-1H-pyrazol-3-yl}carbonyl)piperazin-2-one] | – | 0.648 µM | 0.896 µM | > 3.3 µM
26 | O=C(c1cc(-c2cc(Br)cc(OC(F)(F)F)c2)n(-c2ccnc(C(F)(F)F)c2)n1)N1CCSC1 [Example 117, {5-[3-Bromo-5-(trifluoromethoxy)phenyl]-1-[2-(trifluoromethyl)pyridin-4-yl]-1H-pyrazol-3-yl}(1,3-thiazolidin-3-yl)methanone] | – | 1.28 µM | ≥ 3.3 µM | > 3.3 µM
